Measurements taken from PMC11671526, “β-caryophyllene sensitizes hepatocellular carcinoma cells to chemotherapeutics and inhibits cell malignancy through targeting MAPK signaling pathway” (Frontiers in Pharmacology, 2024).

Tested on: HepG2 cells
Assay: RNA-seq transcriptome analysis of differentially expressed genes
Type: cell-based, human
Protocol: The quality and concentration of RNA were examined by MOPS RNA electrophoresis and Eppendorf BioSpectrometer. The transcriptome analysis was performed by BGI-Wuhan China. The RNA-seq dataset of this study is accessible in the Gene Expression Omnibus (GEO) with an access number of GSE276099. The sequence library for each sample was prepared using the BGISEQ-500 platform with a 50-bp single-end (SE50) format. […]2.2.1) was used to align the clean reads to the reference genome and alignment of the clean reads to the reference genes was carried out using Bowtie2 (v2.4.5) ([Langmead and Salzberg, 2012]; [Kim et al., 2015]). Gene expression levels were calculated by RSEM (v1.3.1) ([Li and Dewey, 2011]). Analysis of differential gene expression was performed using edgeR in the Bioconductor software package ([Robinson et al., 2010]). Using a standard protocol, the RNA samples were also examined by reverse transcription and quantitative polymerase chain reaction (RT-qPCR). In brief, for reverse transcription, total RNA (1 μg) and gDNA wiper Mix were incubated at 42°C for 2 min. The samples were immediately incubated with a master mix containing 10 pmol/μL of poly (dT) primers at 37°C for 15 min and 85°C for 5 s. To detect the expression of specific genes by qPCR analysis, gene-specific primers (shown in Supplementary Table S1) were mixed with the ChamQ Universal SYBER qPCR Master Mix and the reaction was conducted using the Roche Lightcycler 480. The GAPDH value was used to normalize the results of each gene. The RNA-seq data of BCP-treated HepG2 cells were screened for DEGs. Gene symbols were turned into Enterz ID using the org.Hs.eg.db Bio-conductor R package. The cluster profiler (v4.6.2) package was used to perform the Kyoto Encyclopedia of Genes and Genomes (KEGG) and Gene Ontology (GO) enrichment analyses ([Wu et al., 2021]). Following the Transcript per million (TPM) data of the dataset, the line chart, and heatmap were plotted using ggplot2 and pheatmap R packages, respectively.

[1] = HepG2, 150 µM BCP 24 h vs ethanol, RNA-seq DEG
[2] = HepG2, 150 µM BCP 24 h vs ethanol, FDR ≤ 0.05, 1.5-fold change

C=C1CC/C=C(\C)CC[C@@H]2[C@@H]1CC2(C)C [BCP, β-caryophyllene]
245: number of downregulated genes [2]
1.034: TTC21A logFC (BCP vs control HepG2, RNA-seq)
-0.8932: logFC AKR1B1 (gene AKR1B1, BCP vs control HepG2, RNA-seq)
-0.7579: TYW1B logFC (BCP vs control HepG2, RNA-seq)
1.524: logFC ANO2 (gene ANO2, BCP vs control HepG2, RNA-seq)
-0.7229: ZNF284 logFC (BCP vs control HepG2, RNA-seq)
188: number of upregulated genes [2]
1.01: logFC ABLIM2 (gene ABLIM2, BCP vs control HepG2, RNA-seq)
0.6055: TSPAN18 logFC (BCP vs control HepG2, RNA-seq)
-0.6282: ZNF341 logFC (BCP vs control HepG2, RNA-seq)
0.8642: logFC ALDH1L2 (gene ALDH1L2, BCP vs control HepG2, RNA-seq)
-0.8008: logFC AMPD2 (gene AMPD2, BCP vs control HepG2, RNA-seq)
-0.8076: WDR86 logFC (BCP vs control HepG2, RNA-seq)
0.586: TSHZ2 logFC (BCP vs control HepG2, RNA-seq)
0.6882: VEPH1 logFC (BCP vs control HepG2, RNA-seq)
Up: TSPAN18 change (BCP vs control HepG2, RNA-seq) | TTC21A change (BCP vs control HepG2, RNA-seq) | TTC30B change (BCP vs control HepG2, RNA-seq) | VEPH1 change (BCP vs control HepG2, RNA-seq) | ZNF165 change (BCP vs control HepG2, RNA-seq) | change ABLIM2 (gene ABLIM2, DEG direction, BCP vs control HepG2) | change ACKR3 (gene ACKR3, DEG direction, BCP vs control HepG2) | change ADGRD1 (gene ADGRD1, DEG direction, BCP vs control HepG2) | change ADGRG6 (gene ADGRG6, DEG direction, BCP vs control HepG2) | change ALDH1L2 (gene ALDH1L2, DEG direction, BCP vs control HepG2) | change ALPI (gene ALPI, DEG direction, BCP vs control HepG2) | change ALPL (gene ALPL, DEG direction, BCP vs control HepG2) | change ANO2 (gene ANO2, DEG direction, BCP vs control HepG2)
0.7321: logFC ADGRG6 (gene ADGRG6, BCP vs control HepG2, RNA-seq)
0.6675: logFC ACKR3 (gene ACKR3, BCP vs control HepG2, RNA-seq)
-0.7733: logFC ALYREF (gene ALYREF, BCP vs control HepG2, RNA-seq)
-1.752: logFC ANKFN1 (gene ANKFN1, BCP vs control HepG2, RNA-seq)
0.918: ZNF165 logFC (BCP vs control HepG2, RNA-seq)
1.081: logFC ALPL (gene ALPL, BCP vs control HepG2, RNA-seq)
0.8304: logFC ADGRD1 (gene ADGRD1, BCP vs control HepG2, RNA-seq)
Down: TYW1B change (BCP vs control HepG2, RNA-seq) | WASF3 change (BCP vs control HepG2, RNA-seq) | WDR86 change (BCP vs control HepG2, RNA-seq) | ZNF284 change (BCP vs control HepG2, RNA-seq) | ZNF341 change (BCP vs control HepG2, RNA-seq) | ADORA2A expression change (BCP_treatment) [1] | ADRA2C expression change (BCP_treatment) [1] | ALYREF expression change (BCP_treatment) [1] | ANK1 expression change (BCP_treatment) [1] | ANKFN1 expression change (BCP_treatment) [1] | B3GNT4 expression change (BCP_treatment) [1] | BICDL1 expression change (BCP_treatment) [1] | BOC expression change (BCP_treatment) [1] | BOLA2B expression change (BCP_treatment) [1] | CA5B expression change (BCP_treatment) [1] | CAMK2N2 expression change (BCP_treatment) [1] | CCDC86 expression change (BCP_treatment) [1] | CCL26 expression change (BCP_treatment) [1] | CHST6 expression change (BCP_treatment) [1] | CLIP2 expression change (BCP_treatment) [1] | CYP26B1 expression change (BCP_treatment) [1] | DPF1 expression change (BCP_treatment) [1] | EN2 expression change (BCP_treatment) [1] | FAM222A expression change (BCP_treatment) [1] | FBXL22 expression change (BCP_treatment) [1] | FBXO27 expression change (BCP_treatment) [1] | FBXO44 expression change (BCP_treatment) [1] | FRMD3 expression change (BCP_treatment) [1] | FUT3 expression change (BCP_treatment) [1] | GBP2 expression change (BCP_treatment) [1] | GNAZ expression change (BCP_treatment) [1] | H1-2 expression change (BCP_treatment) [1] | H2BC11 expression change (BCP_treatment) [1] | H2BC12 expression change (BCP_treatment) [1] | H3C6 expression change (BCP_treatment) [1] | H4C8 expression change (BCP_treatment) [1] | HPDL expression change (BCP_treatment) [1] | ISYNA1 expression change (BCP_treatment) [1] | KCNH3 expression change (BCP_treatment) [1] | KHDC1 expression change (BCP_treatment) [1] | LYSMD4 expression change (BCP_treatment) [1] | MAFA expression change (BCP_treatment) [1] | MAGEB17 expression change (BCP_treatment) [1] | MAP1A expression change (BCP_treatment) [1] | MNX1 expression change (BCP_treatment) [1] | MYB expression change (BCP_treatment) [1] | MYEOV expression change (BCP_treatment) [1] | NES expression change (BCP_treatment) [1] | NR6A1 expression change (BCP_treatment) [1] | PAQR5 expression change (BCP_treatment) [1] | PI3 expression change (BCP_treatment) [1] | RAPGEF3 expression change (BCP_treatment) [1] | RASD2 expression change (BCP_treatment) [1] | RHBDL3 expression change (BCP_treatment) [1] | S100A3 expression change (BCP_treatment) [1] | SCIN expression change (BCP_treatment) [1] | SHC3 expression change (BCP_treatment) [1] | SLC4A11 expression change (BCP_treatment) [1] | SP6 expression change (BCP_treatment) [1] | STXBP6 expression change (BCP_treatment) [1] | SYN3 expression change (BCP_treatment) [1] | TMEM120B expression change (BCP_treatment) [1] | TMEM158 expression change (BCP_treatment) [1] | TNFSF15 expression change (BCP_treatment) [1] | TRNP1 expression change (BCP_treatment) [1] | VAMP1 expression change (BCP_treatment) [1] | ZBED6CL expression change (BCP_treatment) [1] | ZNF284 expression change (BCP_treatment) [1] | ZNF341 expression change (BCP_treatment) [1] | change ACYP2 (gene ACYP2, DEG direction, BCP vs control HepG2) | change AKR1B1 (gene AKR1B1, DEG direction, BCP vs control HepG2) | change ALYREF (gene ALYREF, DEG direction, BCP vs control HepG2) | change AMPD2 (gene AMPD2, DEG direction, BCP vs control HepG2) | change ANKFN1 (gene ANKFN1, DEG direction, BCP vs control HepG2)
-0.6093: logFC ACYP2 (gene ACYP2, BCP vs control HepG2, RNA-seq)
433: total number of DEGs [2]
-1.027: WASF3 logFC (BCP vs control HepG2, RNA-seq)
0.9718: logFC ALPI (gene ALPI, BCP vs control HepG2, RNA-seq)
markedly downregulated and Down: ARTN expression change (BCP_treatment) [1] | CACNA1E expression change (BCP_treatment) [1] | PGF expression change (BCP_treatment) [1]
1.0891: TTC30B logFC (BCP vs control HepG2, RNA-seq)
